In one test the target is GLK (Homo sapiens (Human), UniProt Q8IVH8). Put plainly: GLK kinase assay (1 mM ATP system), ADP-Glo. Format: biochemical. As to the method: Solution […] The test compound was serially diluted using DMSO to 200 times the detection concentration. […] Centrifuge at 1000×g for 30 seconds and incubate at 25° C. for 15 minutes. • (5) Add ATP and substrate: Add 2 μL of 2×ATP-MBP solution to the 384-well plate and centrifuge at 1000×g for 30 seconds. Seal the plate with a sealing film and incubate at 25° C. for 60 minutes. • (6) Add ADP-Glo reagent: Add 4 μL ADP-Glo reagent (Promega, V9103) to the 384-well plate, centrifuge at 1000×g for 30 seconds, and incubate at 25° C. for 60 minutes. • (7) Detection of luminescent signal: Add 8 μL of luminescent detection reagent (Promega, V9103) to a 384-well plate, centrifuge at 1000×g for 30 seconds, and incubate at 25° C. for 60 minutes. The chemiluminescent signal was read using a BMG microplate reader. • (8) Calculation of percentage inhibition rate: […] See Table 2 for the GLK kinase IC50 data of the example compounds on […].
GLK, sequence (Q8IVH8 whole entry, species assumed): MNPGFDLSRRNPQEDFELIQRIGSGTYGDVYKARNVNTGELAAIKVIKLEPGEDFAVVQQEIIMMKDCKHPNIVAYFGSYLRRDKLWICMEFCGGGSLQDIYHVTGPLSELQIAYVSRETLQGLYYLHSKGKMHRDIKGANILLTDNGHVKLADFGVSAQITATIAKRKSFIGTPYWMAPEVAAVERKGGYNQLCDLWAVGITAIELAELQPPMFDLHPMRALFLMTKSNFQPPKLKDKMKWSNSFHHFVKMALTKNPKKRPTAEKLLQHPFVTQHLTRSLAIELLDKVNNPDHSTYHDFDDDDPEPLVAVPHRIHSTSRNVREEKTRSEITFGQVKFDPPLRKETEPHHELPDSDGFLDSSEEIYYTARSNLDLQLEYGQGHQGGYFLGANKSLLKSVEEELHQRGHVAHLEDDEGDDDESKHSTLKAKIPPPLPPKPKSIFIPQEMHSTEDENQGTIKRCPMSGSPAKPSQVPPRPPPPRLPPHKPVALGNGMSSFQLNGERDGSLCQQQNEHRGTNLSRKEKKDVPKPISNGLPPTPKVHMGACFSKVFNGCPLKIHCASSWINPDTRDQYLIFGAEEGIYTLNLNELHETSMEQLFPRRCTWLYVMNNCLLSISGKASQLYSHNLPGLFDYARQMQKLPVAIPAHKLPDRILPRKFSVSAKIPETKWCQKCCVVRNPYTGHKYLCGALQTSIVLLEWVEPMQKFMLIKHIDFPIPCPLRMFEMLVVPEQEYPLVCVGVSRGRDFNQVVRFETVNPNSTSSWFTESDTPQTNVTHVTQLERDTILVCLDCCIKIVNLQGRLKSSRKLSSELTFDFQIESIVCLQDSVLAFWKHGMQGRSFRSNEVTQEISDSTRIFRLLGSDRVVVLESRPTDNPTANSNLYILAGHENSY
In general terms: ADP-Glo first removes unused ATP, then detects ADP through luciferase.

The target in the next test is HPK1 (Homo sapiens (Human), UniProt Q92918). Put plainly: HPK1 enzyme activity detection (1 mM ATP system), ADP-Glo with MBP substrate, Pharmacological Experiment 2. Format: biochemical. Here is the method:
Pharmacological Experiment 2: […] The test compound was serially diluted using DMSO to 200 times the detection concentration. […] Centrifuge at 1000×g for 30 seconds and incubate at 25° C. for 15 minutes. • (5) Adding ATP and substrate: Add 2 μL of 2×ATP-MBP solution to the 384-well plate and centrifuge at 1000×g for 30 seconds. Seal the plate with a sealing film and incubate at 25° C. for 60 minutes. • (6) Add ADP-Glo reagent: Add 4 μL ADP-Glo reagent (Promega, V9103) to the 384-well plate, centrifuge at 1000×g for 30 seconds, and incubate at 25° C. for 60 minutes. • (7) Detection of luminescent signal; Add 8 μL of luminescent detection reagent (Promega, V9103) to a 384-well plate, centrifuge at 1000×g for 30 seconds, and incubate at 25° C. for 60 minutes. The chemiluminescent signal was read using a BMG instrument. • (8) Calculation of percentage inhibition rate: […] See Table 2 for the enzymatic IC 50 data of the example compounds on HPK1.

This note sets out measurements from US20250361241A1, “HPK1 INHIBITOR AND MEDICAL USE THEREOF” (Betta Pharmaceuticals Co., Ltd., priority 2022, published 2025).

For orientation: IC50 means the concentration that gives 50% inhibition. A low value points to greater potency.

HPK1, sequence (Q92918 whole entry, species assumed): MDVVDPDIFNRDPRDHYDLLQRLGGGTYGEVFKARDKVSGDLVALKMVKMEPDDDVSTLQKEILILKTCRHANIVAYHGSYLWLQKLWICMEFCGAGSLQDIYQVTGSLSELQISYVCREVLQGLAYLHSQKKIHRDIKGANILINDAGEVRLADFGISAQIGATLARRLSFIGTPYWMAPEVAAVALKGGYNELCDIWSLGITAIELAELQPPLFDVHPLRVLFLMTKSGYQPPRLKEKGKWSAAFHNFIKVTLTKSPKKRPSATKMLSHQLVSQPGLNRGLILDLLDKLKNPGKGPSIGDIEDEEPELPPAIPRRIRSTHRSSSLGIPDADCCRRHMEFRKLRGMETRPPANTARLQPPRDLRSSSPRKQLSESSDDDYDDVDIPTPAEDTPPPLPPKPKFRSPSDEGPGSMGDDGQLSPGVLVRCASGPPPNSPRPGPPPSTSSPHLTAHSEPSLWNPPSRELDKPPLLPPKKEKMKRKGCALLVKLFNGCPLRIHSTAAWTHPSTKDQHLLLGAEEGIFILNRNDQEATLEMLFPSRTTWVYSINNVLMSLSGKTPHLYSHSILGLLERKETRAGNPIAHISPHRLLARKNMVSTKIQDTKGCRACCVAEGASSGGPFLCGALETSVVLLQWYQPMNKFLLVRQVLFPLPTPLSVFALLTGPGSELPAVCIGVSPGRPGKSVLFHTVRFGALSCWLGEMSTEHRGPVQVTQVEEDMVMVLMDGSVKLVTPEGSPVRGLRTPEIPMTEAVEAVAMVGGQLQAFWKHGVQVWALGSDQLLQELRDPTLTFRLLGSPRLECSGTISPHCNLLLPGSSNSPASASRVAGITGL

As for `CN(C1CCOCC1)C1CC2(CCOCC2)c2ccc(Nc3ccc(-c4cnc5cc(F)ccn45)c4c3C(=O)NC4)nc21` (stereo not shown) [Compound 93], the results for the IC50 against GLK and against HPK1 were over 25000 nM and 27 nM, respectively.
Consider `COC1(C)CCN(C2CC3(CCOCC3)c3ccc(Nc4ccc(-c5cnc6cc(F)ccn56)c5c4C(=O)NC5)nc32)CC1` (stereo not shown) [Compound 94], for which the 50% inhibitory concentration (IC50) against GLK came out at 4530 nM; against HPK1, 9.27 nM.
Take `O=C1NCc2c(-c3cnc4cc(F)ccn34)ccc(Nc3ccc4c(n3)C(N3CCC(F)(F)CC3)CC43CCOCC3)c21` (stereo not shown) [Compound 98]: the IC50 against GLK was over 30000 nM; against HPK1, 12.4 nM.
For `CC(C)(C)NC1CC2(CCOCC2)c2ccc(Nc3ccc(-c4cnc5cc(F)ccn45)c4c3C(=O)NC4)nc21` (stereo not shown) [Compound 101], in that order: 858 nM and 5.22 nM.
As for `CC(C)NC1CC2(CCOCC2)c2ccc(Nc3ccc(-c4cnc5cc(F)ccn45)c4c3C(=O)NC4)nc21` (stereo not shown) [Compound 102], the IC50 against GLK is over 30000 nM; against HPK1, 7.42 nM.
The corresponding values for `COCCNC1CC2(CCOCC2)c2ccc(Nc3ccc(-c4cnc5cc(F)ccn45)c4c3C(=O)NC4)nc21` (stereo not shown) [Compound 106] are 697 nM and 3.46 nM.
The corresponding values for `O=C1NCc2c(-c3cnc4cc(F)ccn34)ccc(Nc3ccc4c(n3)C(NC3CCCC3)CC43CCOCC3)c21` (stereo not shown) [Compound 109] are 791 nM and 5.97 nM.
`O=C1NCc2c(-c3cnc4cc(F)ccn34)ccc(Nc3ccc4c(n3)C(N3C[C@H]5C[C@@H]3CO5)CC43CCOCC3)c21` (stereo partly shown) [Compound 110]: the IC50 is 317 nM against GLK and 2.67 nM on HPK1.
The corresponding values for `O=C1NCc2c(-c3cnc4cc(F)ccn34)ccc(Nc3ccc4c(n3)C(NCC3CC3)CC43CCOCC3)c21` (stereo not shown) [Compound 117] are 562 nM and 5.04 nM.
For `CC(C)N1Cc2nc(Nc3ccc(-c4cnc5cc(F)ccn45)c4c3C(=O)NC4)ccc2C2(CCOCC2)C1` [Compound 119], in that order: over 3000 nM and 29.8 nM.
As for `O=C1NCc2c(-c3cnc4cc(F)ccn34)ccc(Nc3ccc4c(n3)CN(CC3CC3)CC43CCOCC3)c21` [Compound 120], the IC50 was over 3000 nM against GLK and 11 nM against HPK1.
For `CCN1Cc2nc(Nc3ccc(-c4cnc5cc(F)ccn45)c4c3C(=O)NC4)ccc2C2(CCOCC2)C1` [Compound 124], in that order: 2760 nM and 8.47 nM.
For the molecule `O=C1NCc2c(-c3cnc4cc(F)ccn34)ccc(Nc3ccc4c(n3)C(N3CCC(F)CC3)CC43CCOCC3)c21` (stereo not shown) [Compound 144], the IC50 against GLK was over 3000 nM; against HPK1 it was 7.42 nM.
For `N#Cc1ccn2c(-c3ccc(Nc4ccc5c(n4)CCCC54CCOCC4)c4c3CNC4=O)cnc2c1` [Compound 146, 3-(7-((2,3,5,6,7′,8′-HEXAHYDRO-6′-H-SPIRO[PYRAN-4,5′-[1,7]NAPHTHYRIDINE]-2′-YL)AMINO)-1-OXOISOINDOL-4-YL)IMIDAZO[1,2-A]PYRIDINE-7-CARBONITRILE], in that order: 1230 nM and 4.33 nM.
The corresponding values for `O=C1NCc2c(-c3cnc4n3CCOC4)ccc(Nc3ccc4c(n3)CNCC43CCOCC3)c21` [Compound 153] are 2170 nM and 34.5 nM.
On to `O=C1NCc2c(-c3cnn4c3CCCC4)ccc(Nc3ccc4c(n3)CNCC43CCOCC3)c21` [Compound 154], for which the IC50 on GLK is 646 nM; against HPK1 it was 10.9 nM.
Consider `CN(C)C1CC2(CCOCC2)c2ccc(Nc3ccc(-c4cnc5cc(C#N)ccn45)c4c3C(=O)NC4)nc21` (stereo not shown) [Compound 157, 3-(7-((7-(DIMETHYLAMINO)-2′,3′,5′,6,6′,7-HEXAHYDROSPIRO]CYCLOPENTANE[B]PYRIDINE-5,4′-PYRAN]-2-YL)AMINO)-1-OXOISOINDOL-4-YL)IMIDAZO[1,2-A]PYRIDINE-7-CARBONITRILE], for which the IC50 against GLK was 877 nM; against HPK1 it was 5.9 nM.
For `CN(C)C1CC2(CCOCC2)c2ccc(Nc3ccc(-c4cnc5cc(C(F)F)ccn45)c4c3C(=O)NC4)nc21` (stereo not shown) [Compound 160, 4-(7-(DIFLUOROMETHYL)IMIDAZO[1,2-A]PYRIDIN-3-YL)-7-((7-(METHYLAMINO)-2′,3′,5′,6,6′,7-HEXAHYDRO SPIRO[CYCLOPENTANE[B]PYRIDINE-5,4′-PYRAN]-2-YL)AMINO)ISOINDOL-1-ONE], in that order: 460 nM and 6.57 nM.
With `CN(C)C1CC2(CCOCC2)c2ccc(Nc3ccc(-c4cnc5n4CCOC5)c4c3C(=O)NC4)nc21` (stereo not shown) [Compound 165, 4-(5,6-DIHYDRO-8H-IMIDAZO[2,1-C][1,4]OXAZIN-3-YL)-7-((7-(DIMETHYLAMINO)-2′,3′,5′,6,6′,7-HEXAHYDROSPIRO[CYCLOPENTA[B]PYRIDINE-5,4′-PYRAN]-2-YL)AMINO)ISOINDOL-1-ONE], the values for the IC50 on GLK and against HPK1 were 1190 nM and 24.9 nM, respectively.
Turning to `O=C1NCc2c(-c3cnc4n3CCCC4)ccc(Nc3ccc4c(n3)CCCC43CCOCC3)c21` [Compound 167], the results for the IC50 at GLK and against HPK1 were 1370 nM and 25.3 nM, respectively.
The corresponding values for `N#Cc1ccn2c(-c3ccc(Nc4ccc5c(n4)C(N4CCCC4)CC54CCOCC4)c4c3CNC4=O)cnc2c1` (stereo not shown) [Compound 168, 3-(1-OXO-7-((7-(PYRROLIDIN-1-YL)-2′,3′,5′,6,6′,7-HEXAHYDROSPIRO[CYCLOPENTA[B]PYRIDINE-5,4′-PYRAN]-2-YL)AMINO)ISOINDOL-4-YL)IMIDAZO[1,2-A]PYRIDINE-7-CARBONITRILE] are 289 nM and 5.27 nM.
For `O=C1NCc2c(-c3cnc4cc(OC(F)F)ccn34)ccc(Nc3ccc4c(n3)C(N3CCCC3)CC43CCOCC3)c21` (stereo not shown) [Compound 169, 4-(7-(DIFLUOROMETHOXY)IMIDAZO[1,2-A]PYRIDIN-3-YL)-7-((7-(PYRROLIDIN-1-YL)-2′,3′,5′,6,6′,7-HEXAHYDROSPIRO[CYCLOPENTA[B]PYRIDINE-5,4′-PYRAN]-2-YL)AMINO)ISOINDOL-1-ONE], in that order: 223 nM and 9.19 nM.
The corresponding values for `CN(C)C1CC2(CCOC2)c2ccc(Nc3ccc(-c4cnc5cc(OC(F)F)ccn45)c4c3C(=O)NC4)nc21` (stereo not shown) [Compound 172, 4-(7-(DIFLUOROMETHOXY)IMIDAZO[1,2-A]PYRIDIN-3-YL)-7-((7-(METHYLAMINO)-4′,5′,6,7-TETRAHYDRO-2′-H-PYRIDO[CYCLOPENTYL[B]PYRIDINE-5,3′-FURAN]-2-YL)AMINO)ISOINDOLIN-1-ONE] are 1120 nM and 13.8 nM.
`CN(C)C1COC2(CCC2)c2ccc(Nc3ccc(-c4cnc5cc(F)ccn45)c4c3C(=O)NC4)nc21` (stereo not shown) [Compound 173]: the figures for the IC50 on GLK and against HPK1 were 3200 nM and 8.47 nM, respectively.
For `CN(C)C1CC2(CCOCC2)c2ccc(Nc3ccc(-c4cnc5cc(N)ccn45)c4c3C(=O)NC4)nc21` (stereo not shown) [Compound 174, 4-(7-AMINOIMIDAZO[1,2-A]PYRIDIN-3-YL)-7-((7-(DIMETHYLAMINO)-2′,3′,5′,6,6′,7-HEXAHYDROSPIRO[CY CLOPENTADIENYL[B]PYRIDINE-54′-PYRAN]-2-YL)AMINO)ISOINDOL-1-ONE], in that order: 566 nM and 19.2 nM.
The corresponding values for `O=C1NCc2c(-c3cnc4cc(OC(F)F)ccn34)ccc(Nc3ccc4c(n3)C(NC3CC3)CC43CCOCC3)c21` (stereo not shown) [Compound 178, 7-((7-(CYCLOPROPYLAMINO)-2′,3′,5′,6,6′,7-HEXAHYDROSPIRO[CYCLOPENTADIENYL[B]PYRIDINE-54′-PYRAN]-2-YL)AMINO)-4-(7-(DIFLUOROMETHOXY)IMIDAZO[1,2-A]PYRIDIN-3-YL)ISOINDOLIN-1-ONE] are 1240 nM and 13.7 nM.
